The source of these data is ChEMBL document CHEMBL5126520, “Recent research results have converted gp120 binders to a therapeutic option for the treatment of HIV-1 infection. A medicinal chemistry point of view” (Eur J Med Chem, 2022).

The subject of series [1] is Human immunodeficiency virus 1. Description: Antiviral activity against HIV-1 IIIB(X4) infected in human MT2 cells assessed as reduction in p24 antigen level preincubated for 30 mins followed by infection with cells and measured after 3 to 4 days by ELISA. The format is functional, organism-based. Particulars: Human immunodeficiency virus 1, IIIB(X4).
For series [2], the system named is Human immunodeficiency virus 1. Description: Antiviral activity against HIV-1 Bal(R5) infected in human CEMx174 5.25M7 cells assessed as reduction in p24 antigen level preincubated for 30 mins followed by infection with cells and measured after 3 to 4 days by ELISA. In kind it is functional, organism-based. To be noted: Human immunodeficiency virus 1, Bal(R5).

Series [3] has as its system Human immunodeficiency virus 1. Description: Antiviral activity against HIV-1 IIIB infected in human MT2 cells assessed as reduction in p24 antigen level incubated for 1 hr by ELISA. The format is functional, organism-based. Particulars: Human immunodeficiency virus 1, IIIB, MT2, 1 h.
The nature of series [4]: Cytotoxicity against human MT2 cells assessed as reduction in cell viability incubated for 4 days by XTT assay. The format is toxicity, cell-based. Particulars: time 4 day.
Series [5] can be described thus: Selectivity index, ratio of CC50 for cytotoxicity against human MT2 cells to EC50 for antiviral activity against HIV-1 IIIB infected in human MT2 cells. In kind it is toxicity, cell-based. Particulars: read-out: Ratio CC50/EC50.
Series [6] has as its system Human immunodeficiency virus 1. Nature of the series: Antiviral activity against HIV-1 pseudotyped virus expressing HXB-2 Env proteins infected in human TZM-bl cells assessed as inhibition of viral entry preincubated for 30 mins followed by infection with cells and measured after 3 days by luciferase based analysis. In kind it is functional, organism-based. To be noted: Human immunodeficiency virus 1, TZM-bl.

Series [7] in a line: Selectivity index, ratio of CC50 for Cytotoxicity against human TZM-bl cells to EC50 for antiviral activity against HIV-1 pseudotyped virus expressing HXB-2 Env proteins infected in human TZM-bl cells. The format is toxicity, cell-based. To be noted: read-out: Ratio CC50/EC50.
Series [8] has as its system Human immunodeficiency virus 1. Nature of the series: Antiviral activity against laboratory-adapted HIV-1 NL4-3 infected in human TZM-bl cells incubated for 2 days by luciferase based analysis. Particulars: Human immunodeficiency virus 1, NL4-3, TZM-bl, 48 h. In kind it is functional, organism-based.
For series [9], the system named is Human immunodeficiency virus 1. Nature of the series: Antiviral activity against HIV-1 CH58TF infected in human TZM-bl cells assessed as neutralization viral infection pretreated for 1 hr followed by infection with cells and measured after 48 hrs by luciferase assay. In kind it is functional, organism-based. Particulars: Human immunodeficiency virus 1, CH58TF.

Series [10] concerns Human immunodeficiency virus 1. Nature of the series: Antiviral activity against HIV-1 JR-FL. The format is functional, organism-based. Particulars: Human immunodeficiency virus 1, JR-FL.
In series [11] the test system is Human immunodeficiency virus 1. Description: Antiviral activity against HIV-1 YU-2 assessed as inhibition of viral entry. In kind it is functional, organism-based. To be noted: Human immunodeficiency virus 1, YU-2.
Series [12] can be described thus: Cytotoxicity against human TZM-bl cells assessed as reduction in cell viability incubated for 3 days by MTS assay. In kind it is toxicity, cell-based. To be noted: time 3 day.
For series [13], the system named is Human immunodeficiency virus 1. Description: Antiviral activity against HIV-1 IIIB infected in human MT2 cells assessed as inhibition of p24 production preincubated for 30 mins followed by infection with cells and measured after 4 days by ELISA. In kind it is functional, organism-based. To be noted: Human immunodeficiency virus 1, IIIB.
Series [14] can be described thus: Cytotoxicity against human MT2 cells assessed as reduction in cell viability incubated for 4 days by MTS assay. In kind it is toxicity, cell-based. To be noted: time 4 day.
For series [15], the system named is Human immunodeficiency virus 1. Nature of the series: Antiviral activity against HIV-1 IIIB(X4) infected in human CEMx174 5.25M7 cells assessed as inactivation of HIV-1 free virions by measuring p24 antigen level preincubated for 1 hr followed by infection with cells and measured after 3 to 4 days by ELISA. The format is functional, organism-based. Particulars: Human immunodeficiency virus 1, IIIB(X4).

Series [16] concerns Human immunodeficiency virus 1. Nature of the series: Antiviral activity against HIV-1 Bal(R5) infected in human CEMx174 5.25M7 cells assessed as inactivation of HIV-1 free virions by measuring p24 antigen level preincubated for 1 hr followed by infection with cells and measured after 3 to 4 days by ELISA. The format is functional, organism-based. Particulars: Human immunodeficiency virus 1, Bal(R5).

Series [17] is described as follows: Cytotoxicity against human MT2 cells assessed as reduction in cell viability incubated for 48 hrs by CCK-8 assay. In kind it is toxicity, cell-based.
The nature of series [18]: Cytotoxicity against human CEMx174 5.25M7 cells assessed as reduction in cell viability incubated for 48 hrs by CCK-8 assay. The format is toxicity, cell-based.
The target of series [19] is Envelope glycoprotein gp160 (Human immunodeficiency virus 1, UniProt Q6QLK5). Description: Inhibition of HIV1 gp120 interaction with CD4 pretreated for 1 hr followed by TMB substrate addition and measured after 10 mins by ELISA.
The subject of series [20] is Human immunodeficiency virus 1. Description: Antiviral activity against HIV-1 Bal.01 infected in HOS.T4.R5 cells preincubated for 45 mins followed by infection with cells and measured 24 hrs post infection by luminescence based analysis. In kind it is functional, organism-based. To be noted: Human immunodeficiency virus 1, Bal.01, HOS.T4.R5.
Series [21] in a line: Cytotoxicity against HOS.T4.R5 cells assessed as reduction in cell viability incubated for 24 hrs by WST-1 assay. In kind it is toxicity, cell-based. To be noted: human.

Each structure is given as a SMILES string. Starred links: 1 amine or outer side, 2 acyl side, 3 side chain; linkers in the order of their positions; H or OH if unused. Positions of bridges follow the written chain, without caps; N, C: chain ends. Non-standard residues stand in square brackets, D forms with d. Residues, ends and D or L forms follow the SMILES beside them. X1 = O=C([C@@H]1CC(n2cc(-c3ccc(-c4cccs4)cc3)nn2)CN1[*:1])[*:2]

Chain of Envelope glycoprotein gp160 (Q6QLK5 whole entry): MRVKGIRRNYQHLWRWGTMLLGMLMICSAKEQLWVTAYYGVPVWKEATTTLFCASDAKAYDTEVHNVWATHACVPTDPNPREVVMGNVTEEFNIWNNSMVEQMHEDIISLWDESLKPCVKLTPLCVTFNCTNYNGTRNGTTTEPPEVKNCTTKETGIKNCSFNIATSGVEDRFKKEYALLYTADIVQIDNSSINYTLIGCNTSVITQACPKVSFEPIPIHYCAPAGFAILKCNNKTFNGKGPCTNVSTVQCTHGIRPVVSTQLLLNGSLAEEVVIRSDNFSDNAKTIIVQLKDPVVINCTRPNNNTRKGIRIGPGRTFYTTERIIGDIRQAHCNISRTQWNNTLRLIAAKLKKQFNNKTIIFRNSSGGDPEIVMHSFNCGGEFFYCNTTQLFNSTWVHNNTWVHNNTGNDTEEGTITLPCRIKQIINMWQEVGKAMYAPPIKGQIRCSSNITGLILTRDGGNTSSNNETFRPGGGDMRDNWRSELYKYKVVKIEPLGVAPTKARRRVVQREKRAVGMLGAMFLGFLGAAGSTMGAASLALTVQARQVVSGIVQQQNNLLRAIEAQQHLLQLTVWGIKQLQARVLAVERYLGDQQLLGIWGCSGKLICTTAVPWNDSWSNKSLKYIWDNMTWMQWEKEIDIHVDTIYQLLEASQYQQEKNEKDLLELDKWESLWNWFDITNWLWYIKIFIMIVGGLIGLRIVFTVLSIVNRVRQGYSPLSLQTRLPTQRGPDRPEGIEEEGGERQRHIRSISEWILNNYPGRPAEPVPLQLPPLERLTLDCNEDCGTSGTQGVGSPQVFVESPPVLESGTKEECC

Take `CC1(C)CC(NC(=O)C(=O)Nc2ccc(Cl)c(F)c2)CC(C)(C)N1`: the IC50 in [1] and in [2] was 830 nM in each case.
Turning to `CC1(C)CC(NC(=O)C(=O)Nc2ccc(Cl)cc2)CC(C)(C)N1`, the EC50 in [3] is 6500 nM; in series [6] it was 6900 nM. For the same molecule, in series [4], the CC50 at 96 h is more than 280000 nM. The figures for the selectivity ratio in series [5] and in series [7] were more than 43 and 8.7, respectively.
In series [8], `COc1ccnc2[nH]cc(C(=O)C(=O)N3CCN(C(=O)c4ccccc4)C[C@H]3C)c12` came in with a concentration for a half-maximal effect (EC50) of 2200 nM.
Turning to `NCCNC(=O)N1CCC[C@H](C(=O)Nc2ccc(Cl)c(F)c2)C1`, in [9], the EC50 amounted to 7000 nM.
In [10], `CCOC(=O)N1CCC[C@H](C(=O)Nc2ccc(Cl)c(F)c2)C1` returned an EC50 of 18000 nM.
On to `CNCc1ccc2c(c1)[C@H](NC(=O)C(=O)Nc1ccc(Cl)c(F)c1)[C@@H](CNC(=N)N)C2`, for which the EC50 in series [11] was 1600 nM.
As for `CN(Cc1ccc2c(c1)[C@H](NC(=O)C(=O)Nc1ccc(Cl)c(F)c1)[C@@H](CNC(=N)N)C2)C(=N)N`, the EC50 in [11] worked out at 1300 nM; in [9] it was 110 nM.
`CNCc1ccc2c(c1)[C@@H](CC[C@@H](O)CO)[C@H](CNC(=N)N)[C@H]2NC(=O)C(=O)Nc1ccc(Cl)c(F)c1` gave an EC50 in [10] of 22000 nM.
The molecule `COc1cnc(-c2csc(CN(C)CCCN(C)C)n2)c2[nH]cc(C(=O)C(=O)N3CCC([C@@H](C#N)c4ccccc4)CC3)c12` gave an EC50 in series [8] of 20 nM.
Regarding `O=C(O)c1cc(-c2ccc(/C=C3\SC(=S)N(CCc4ccc(O)cc4)C3=O)o2)ccc1Cl`, the IC50 in [1] and in series [2] was 830 nM in each case.
Turning to `Cc1nc(C(CN)NC(=O)c2ccc(-c3ccc4c(c3)OCO4)[nH]2)sc1CO` (stereo unspecified), the selectivity ratio turned out to be 51 in series [5] and 63 in [7]. Further, the EC50 turned out to be 2300 nM in series [6] and 3800 nM in series [13]. Further, in series [12], the CC50 at 72 h worked out at 146000 nM. Moreover, the CC50 at 96 h in series [14] was determined as 193000 nM.
Consider `CC1(C)CC(NC(=O)C(=O)Nc2ccc(Cl)c(F)c2)CC(C)(C)N1C(=O)COc1ccc(CCN2C(=O)/C(=C/c3ccc(-c4ccc(Cl)c(C(=O)O)c4)o3)SC2=S)cc1`, for which the IC50 in [15] is 710 nM; in [16], 660 nM. Further, the figures for the CC50 at 48 h in series [17] and in series [18] were 29000 nM and 18000 nM, respectively.
In the case of `COc1ccnc2[nH]cc(C(=O)C(=O)N3CCN(C(=O)c4ccccc4)CC3)c12`, the IC50 in series [19] is 1.5 nM.
In turn, `CC[C@H](C)[C@@H]1NC(=O)[C@H](CC(N)=O)NC(=O)[C@@H](N)CC(=O)NCCCC[C@@H](C(N)=O)NC(=O)[C@H](Cc2c[nH]c3ccccc23)NC(=O)[C@@H]2CC(n3cc(-c4ccc(-c5cccs5)cc4)nn3)CN2C1=O` (stereo partly specified) (H-DNI[X1]WK-NH2; lactam 1-6) showed an EC50 in series [20] of 105 nM. Besides, the half-maximal cytotoxic concentration (CC50) at 24 h in [21] stood at 100000 nM.
The molecule `CCOC(=O)N1CCCC(C(=O)Nc2ccc(Cl)c(F)c2)C1` (racemic) registered an EC50 in series [10] of 8300 nM.
